In brackets after ≈: the same amount, converted by molar mass.
Tests used:
[1] = test system: Human immunodeficiency virus 1; assay: Antiviral activity against HIV-1 infected in FlpIn-HEK293 cells assessed as activation of long terminal repeat driven gene expression incubated for 72 hrs by luciferase based cellular assay; assay type: functional, organism-based; conditions: Human immunodeficiency virus 1, HEK293, 72 h
Cytomegalovirus = assay: Antiviral activity against CMV infected in FlpIn-HEK293 cells assessed as click beetle green reporter driven gene expression incubated for 72 hrs by luciferase based cellular assay; assay type: functional, organism-based; conditions: HEK293, 72 h
[2] = Aqueous solubility of compound at pH 2 by nephelometry; assay type: physicochemical
[3] = Aqueous solubility of compound at pH 6.5 by nephelometry; assay type: physicochemical
[4] = Metabolic stability in mouse liver microsomes assessed as half life at 1 uM measured upto 60 mins by LC-MS anlaysis; assay type: ADME, Microsome
[5] = Metabolic stability in mouse liver microsomes assessed as intrinsic clearance at 1 uM measured upto 60 mins by LC-MS anlaysis; assay type: ADME, Microsome; conditions: read-out: CLH
[6] = test system: Human immunodeficiency virus 1; assay: Antiviral activity against HIV-1 infected in FlpIn-HEK293 cells assessed as maximal activation of long terminal repeat driven gene expression at 0.09 uM incubated for 48 hrs by luciferase based cellular assay relative to control; assay type: functional
[7] = test system: Human immunodeficiency virus 1; assay: Antiviral activity against HIV-1 infected in J-Lat 10.6 cells assessed as maximal activation of long terminal repeat driven gene expression incubated for 48 hrs by green fluorescent protein based cellular assay; assay type: functional, organism-based; conditions: Human immunodeficiency virus 1, J-Lat 10.6, 48 h
[8] = test system: Human immunodeficiency virus 1; assay: Antiviral activity against HIV-1 infected in J-Lat 10.6 cells assessed as maximal activation of long terminal repeat driven gene expression at 0.06 uM incubated for 48 hrs by green fluorescent protein based cellular assay relative to control; assay type: functional
[9] = Cytotoxicity against human HepG2 cells assessed as growth incubation incubated for 48 hrs by cell titer glo assay; assay type: cell-based
[10] = test system: Human immunodeficiency virus 1; assay: Antiviral activity against HIV-1 infected in FlpIn-HEK293 cells assessed as maximal activation of long terminal repeat driven gene expression at 1.3 uM incubated for 48 hrs by luciferase based cellular assay relative to control; assay type: functional
[11] = test system: Human immunodeficiency virus 1; assay: Antiviral activity against HIV-1 infected in J-Lat 10.6 cells assessed as maximal activation of long terminal repeat driven gene expression at 20 uM incubated for 48 hrs by green fluorescent protein based cellular assay relative to control; assay type: functional
[12] = Metabolic stability in human liver microsomes assessed as half life at 1 uM measured upto 60 mins by LC-MS anlaysis; assay type: ADME, Microsome
[13] = Metabolic stability in human liver microsomes assessed as intrinsic clearance at 1 uM measured upto 60 mins by LC-MS analysis; assay type: ADME, Microsome; conditions: read-out: CLH
[14] = test system: Human immunodeficiency virus 1; assay: Antiviral activity against HIV-1 infected in FlpIn-HEK293 cells assessed as maximal activation of long terminal repeat driven gene expression at 0.13 uM incubated for 48 hrs by luciferase based cellular assay relative to control; assay type: functional
[15] = test system: Human immunodeficiency virus 1; assay: Antiviral activity against HIV-1 infected in J-Lat 10.6 cells assessed as maximal activation of long terminal repeat driven gene expression at 0.13 uM incubated for 48 hrs by green fluorescent protein based cellular assay relative to control; assay type: functional
[16] = target: Cyclin-dependent kinase 9 (Homo sapiens) (UniProt P50750); assay: Inhibition of CDK9 (unknown origin) at 0.5 uM
Cyclin-K (Homo sapiens) = target: T1, Cyclin-K (Homo sapiens) (UniProt O75909); assay: Inhibition of cyclin K (unknown origin) at 0.5 uM
T1 sequence (whole entry): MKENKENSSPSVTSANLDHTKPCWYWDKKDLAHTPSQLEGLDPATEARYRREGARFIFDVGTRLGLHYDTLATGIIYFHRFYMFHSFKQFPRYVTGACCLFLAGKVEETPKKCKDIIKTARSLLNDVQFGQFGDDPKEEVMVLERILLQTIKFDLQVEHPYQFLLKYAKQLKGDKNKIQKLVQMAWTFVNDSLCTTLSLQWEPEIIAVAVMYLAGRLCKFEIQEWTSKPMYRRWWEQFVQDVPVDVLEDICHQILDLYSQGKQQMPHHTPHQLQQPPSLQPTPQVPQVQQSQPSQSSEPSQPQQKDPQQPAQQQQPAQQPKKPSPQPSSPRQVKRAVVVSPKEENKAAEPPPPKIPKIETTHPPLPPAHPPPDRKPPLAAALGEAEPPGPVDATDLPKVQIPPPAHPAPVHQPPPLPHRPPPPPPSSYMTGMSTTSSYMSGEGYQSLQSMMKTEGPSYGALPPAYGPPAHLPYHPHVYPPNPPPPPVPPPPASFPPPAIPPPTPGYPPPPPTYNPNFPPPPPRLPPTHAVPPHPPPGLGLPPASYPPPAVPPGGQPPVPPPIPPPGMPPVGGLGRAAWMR

Cyclin-T1 (Homo sapiens) = Cyclin-T1 (Homo sapiens) (UniProt O60563); assay: Inhibition of cyclin T1 (unknown origin) at 0.5 uM
Cyclin-T2 (Homo sapiens) = Cyclin-T2 (Homo sapiens) (UniProt O60583); assay: Inhibition of cyclin T2 (unknown origin) at 0.5 uM
Cyclin-T2 (Homo sapiens), sequence (O60583 whole entry): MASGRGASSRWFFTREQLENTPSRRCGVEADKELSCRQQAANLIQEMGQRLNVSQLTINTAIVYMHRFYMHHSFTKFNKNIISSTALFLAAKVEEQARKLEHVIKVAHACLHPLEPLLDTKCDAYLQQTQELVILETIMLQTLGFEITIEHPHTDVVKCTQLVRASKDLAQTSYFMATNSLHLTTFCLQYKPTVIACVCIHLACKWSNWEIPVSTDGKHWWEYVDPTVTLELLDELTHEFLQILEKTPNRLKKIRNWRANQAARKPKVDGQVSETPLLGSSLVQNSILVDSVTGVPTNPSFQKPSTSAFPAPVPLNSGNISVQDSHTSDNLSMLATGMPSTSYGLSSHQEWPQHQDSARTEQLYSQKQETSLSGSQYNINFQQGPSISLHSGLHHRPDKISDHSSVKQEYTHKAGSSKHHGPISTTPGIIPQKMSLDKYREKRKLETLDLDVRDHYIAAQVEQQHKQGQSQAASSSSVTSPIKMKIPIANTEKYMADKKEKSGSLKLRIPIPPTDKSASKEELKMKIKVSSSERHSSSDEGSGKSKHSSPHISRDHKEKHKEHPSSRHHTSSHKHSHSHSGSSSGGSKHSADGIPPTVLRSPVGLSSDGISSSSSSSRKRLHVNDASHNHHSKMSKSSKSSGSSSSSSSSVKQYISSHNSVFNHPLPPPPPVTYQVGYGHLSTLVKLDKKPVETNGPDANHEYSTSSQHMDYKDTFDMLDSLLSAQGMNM

Cyclin-dependent kinase 9 (Homo sapiens), sequence (P50750 whole entry): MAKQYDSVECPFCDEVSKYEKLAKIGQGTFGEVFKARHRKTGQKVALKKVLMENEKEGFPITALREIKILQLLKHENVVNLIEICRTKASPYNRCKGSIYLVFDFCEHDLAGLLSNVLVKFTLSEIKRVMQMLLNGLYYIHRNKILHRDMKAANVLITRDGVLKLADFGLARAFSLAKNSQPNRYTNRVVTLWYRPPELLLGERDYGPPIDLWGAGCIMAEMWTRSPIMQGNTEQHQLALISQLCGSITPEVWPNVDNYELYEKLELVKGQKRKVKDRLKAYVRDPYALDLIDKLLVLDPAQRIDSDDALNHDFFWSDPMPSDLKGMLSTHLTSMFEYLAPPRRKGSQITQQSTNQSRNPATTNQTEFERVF
Cyclin-T1 (Homo sapiens), sequence (O60563 whole entry): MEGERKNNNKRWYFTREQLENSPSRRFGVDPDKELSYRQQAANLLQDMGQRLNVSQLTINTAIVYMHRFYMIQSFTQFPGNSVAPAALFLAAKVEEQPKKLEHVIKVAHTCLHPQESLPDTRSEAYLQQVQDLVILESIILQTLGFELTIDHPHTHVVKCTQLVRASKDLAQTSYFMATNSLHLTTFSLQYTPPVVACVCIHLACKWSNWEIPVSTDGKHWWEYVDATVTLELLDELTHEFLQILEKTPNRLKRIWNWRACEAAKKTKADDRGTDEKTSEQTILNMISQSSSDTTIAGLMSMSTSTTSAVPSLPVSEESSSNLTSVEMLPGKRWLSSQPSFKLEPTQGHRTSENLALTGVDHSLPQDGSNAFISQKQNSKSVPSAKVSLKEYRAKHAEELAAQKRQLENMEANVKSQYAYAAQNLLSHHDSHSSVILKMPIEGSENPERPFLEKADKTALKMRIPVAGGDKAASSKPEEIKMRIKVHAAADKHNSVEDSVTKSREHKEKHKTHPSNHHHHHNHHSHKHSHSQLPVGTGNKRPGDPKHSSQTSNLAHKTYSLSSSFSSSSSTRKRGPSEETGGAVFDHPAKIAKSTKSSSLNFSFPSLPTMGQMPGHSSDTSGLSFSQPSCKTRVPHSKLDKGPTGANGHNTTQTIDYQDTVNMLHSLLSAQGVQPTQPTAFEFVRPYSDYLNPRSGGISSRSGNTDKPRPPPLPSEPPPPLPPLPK

Row | EC50 [1] [nM] | EC50 (Cytomegalovirus) [nM] | solubility kinetic [2] [µM] | solubility kinetic [3] [µM] | half-life at 1 µM [4] [min] | microsomal CLint at 1 µM [5] [µL/min/mg] | EC50 [7] [nM] | half-life at 1 µM [12] [min] | microsomal CLint at 1 µM [13] [µL/min/mg] | inhibition [16] [%] | inhibition (Cyclin-K (Homo sapiens)) [%] | inhibition (Cyclin-T1 (Homo sapiens)) [%] | inhibition (Cyclin-T2 (Homo sapiens)) [%] | Compound | %max [6] [%] | %max [8] [%] | CC50 at 48 h [9] [nM] | %max [10] [%] | %max [11] [%] | %max [14] [%] | %max [15] [%]
1 | 80 | 27000 | 25 (≈ 9.59 µg/mL) | 1.6 (≈ 0.614 µg/mL) | 13 | 132 | 24000 |  |  |  |  |  |  | Clc1cnc2[nH]c(N3CCN(c4cnc(Cl)c(Cl)c4)CC3)nc2c1 | 57 | 28 | 40 |  |  |  | 
2 |  |  |  |  |  |  | 29000 |  |  |  |  |  |  | Cc1cc(OCCCC(=O)Nc2ncc(Cl)s2)ccc1Cl |  |  |  | 39 | 15 |  | 
3 | 80 | 70 | < 1.6 | < 1.6 | 55 | 32 | 290 | 70 | 25 | 60 | 60 | 60 | 60 | O=C(Nc1ncc(Cl)s1)N1CCN(c2cnc(Cl)c(Cl)c2)CC1 |  |  | 40 |  |  | 65 | 26

Reference: ChEMBL document CHEMBL4765284, “Optimization of 5-substituted thiazolyl ureas and 6-substituted imidazopyridines as potential HIV-1 latency reversing agents” (Eur J Med Chem, 2020)
